Active and inactive are the calls of the source. No rule for the calls is given here.
Test system: GENE-TOX genotoxicity assays, various organisms and cells
Assay: GENE-TOX mutagenicity studies
Conditions: for call: Assay Type: In vivo carcinogenicity studies
[1] = Species/Cell Type: Allium cepa, Assay Type: Chromosome aberrations, Assay Code: ALC+, Evaluation Type: Evaluation A (Pre-1980)
[2] = Species/Cell Type: Hordeum vulgare (barley), Assay Type: Chromosome aberrations, Assay Code: HOC+, Evaluation Type: Evaluation A (Pre-1980)
[3] = Species/Cell Type: Salmonella typhimurium (one or more of the five standard strains: TA98, TA100, TA1535, TA1537, and TA1538), Assay Type: Histidine reverse gene mutation, Ames assay, Assay Code: SAL+, Evaluation Type: Evaluation A (Pre-1980)
[4] = Species/Cell Type: Salmonella typhimurium (one or more of the five standard strains: TA98, TA100, TA1535, TA1537, and TA1538), Assay Type: Histidine reverse gene mutation, Ames assay, Assay Code: SAL+*, Activation: With metabolic activation, Evaluation Type: Evaluation A (Pre-1980)
[5] = Species/Cell Type: Arabidopsis species, Assay Type: Gene mutation, Assay Code: ARM-, Evaluation Type: Evaluation A (Pre-1980)
[6] = Species/Cell Type: Drosophila melanogaster, Assay Type: Sex-linked recessive lethal gene mutation, Assay Code: SRL+, Evaluation Type: Evaluation A (Pre-1980)
[7] = Species/Cell Type: Human lymphocytes, Assay Type: Sister-chromatid exchange (SCE) in vitro, Assay Code: SCL+D, Dose Response: With dose response, Evaluation Type: Evaluation B (Post-1980)
[8] = Species/Cell Type: Human, Assay Type: Sister-chromatid exchange (SCE) in vitro, Assay Code: SC1+D, Dose Response: With dose response, Evaluation Type: Evaluation B (Post-1980)
[9] = Species/Cell Type: Mammalian polychromatic erythrocytes, Assay Type: Micronucleus test, chromosome aberrations, Assay Code: MNTT, Evaluation Type: Evaluation A (Pre-1980)
[10] = Species/Cell Type: Neurospora crassa, Assay Type: Aneuploidy, chromosome aberrations, Assay Code: NEN-, Evaluation Type: Evaluation A (Pre-1980)
[11] = Species/Cell Type: Nonhuman, Assay Code: CCG-L, Evaluation Type: Evaluation A (Pre-1980)
[12] = Species/Cell Type: Nonhuman, Assay Type: Sister-chromatid exchange (SCE) in vitro, Assay Code: SC2+D, Dose Response: With dose response, Evaluation Type: Evaluation B (Post-1980)
[13] = Species/Cell Type: Nonhuman, Assay Type: Sister-chromatid exchange (SCE) in vitro, Assay Code: SC2-, Evaluation Type: Evaluation A (Pre-1980)
[14] = Species/Cell Type: Salmonella typhimurium (one or more of the five standard strains: TA98, TA100, TA1535, TA1537, and TA1538), Assay Type: Histidine reverse gene mutation, Ames assay, Assay Code: SAL-, Evaluation Type: Evaluation A (Pre-1980)
[15] = Species/Cell Type: Aspergillus nidulans, Assay Type: Forward gene mutation, Assay Code: ASF-, Evaluation Type: Evaluation A (Pre-1980)
[16] = Species/Cell Type: Mouse, Sex: Male, Assay Type: Sperm morphology, Assay Code: SPI-, Evaluation Type: Evaluation A (Pre-1980)
[17] = Species/Cell Type: Salmonella typhimurium (one or more of the five standard strains: TA98, TA100, TA1535, TA1537, and TA1538), Assay Type: Histidine reverse gene mutation, Ames assay, Assay Code: SALT, Evaluation Type: Evaluation A (Pre-1980)
[18] = Species/Cell Type: Saccharomyces cerevisiae, Assay Type: Mitotic recombination or gene conversion, Assay Code: YEC+, Evaluation Type: Evaluation A (Pre-1980)

## CCCCC/C=C/C=C/C(=O)NCC(C)C
[1]
  mutagenic call: active; positive

## [Cl][Pt-2]([Cl])([Cl])([Cl])([Cl])[Cl]
Species/Cell Type: Bacillus subtilis (H17 vs M45), Assay Type: Rec-assay, spot test, DNA effects (bacterial DNA repair), Assay Code: REW+, Evaluation Type: Evaluation A (Pre-1980)
  mutagenic call: active; positive

## CCS(=O)(=O)OC
Species/Cell Type: Glycine max (soybean), Assay Type: Gene mutation, Assay Code: GLM+, Evaluation Type: Evaluation A (Pre-1980)
  mutagenic call: active; positive
[2]
  mutagenic call: active; positive
Species/Cell Type: Hordeum vulgare (barley), Assay Type: Gene mutation, Assay Code: HOM+D, Dose Response: With dose response, Evaluation Type: Evaluation A (Pre-1980)
  mutagenic call: active; positive
Species/Cell Type: Rabbit, Sex: Male, Assay Type: Sperm morphology, Assay Code: SPRT, Evaluation Type: Evaluation A (Pre-1980)
  mutagenic call: no conclusion

## Cc1cc(O)cc(O)c1
Species/Cell Type: Allium cepa, Assay Type: Chromosome aberrations, Assay Code: ALC-, Evaluation Type: Evaluation A (Pre-1980)
  mutagenic call: inactive; negative

## O=c1c2ccccc2sc2c(CO)ccc(NCCN3CCCCC3)c12
Species/Cell Type: Mouse lymphoma (L5178Y) cells, Assay Type: Forward gene mutation at the thymidine kinase (TK) locus, chromosome aberrations, Assay Code: L51+, Evaluation Type: Evaluation A (Pre-1980)
  mutagenic call: active; positive

## ClCCNCCNc1c2ccccc2nc2c1ccc1ccccc12
[3]
  mutagenic call: active; positive

## Nc1c(Cl)cc(-c2cc(Cl)c(N)c(Cl)c2)cc1Cl
Species/Cell Type: Human diploid fibroblasts, Assay Type: Unscheduled DNA synthesis (UDS) in vitro, DNA effects, Assay Code: UDH+*, Activation: With metabolic activation, Evaluation Type: Evaluation A (Pre-1980)
  mutagenic call: active; positive

## O=Cc1ccccc1[N+](=O)[O-]
[3]
  mutagenic call: active; positive

## O=C1c2ccccc2C(=O)c2c1ccc(O[C@@H]1O[C@H](CO)[C@@H](O)[C@H](O)[C@H]1O)c2O
[4]
  mutagenic call: active; positive

## Cc1ccc2cc3ccc4ccccc4c3cc2c1
Species/Cell Type: Nonhuman, Assay Type: Sister-chromatid exchange (SCE) in vitro, Assay Code: SC2+, Evaluation Type: Evaluation B (Post-1980)
  mutagenic call: active; positive
[4]
  mutagenic call: active; positive
Species/Cell Type: Syrian hamster embryo (SHE) cells, Assay Type: Cell transformation, clonal assay, Assay Code: CTC+, Evaluation Type: Evaluation A (Pre-1980)
  mutagenic call: active; positive

## OCc1c2ccccc2cc2c1ccc1ccccc12
Species/Cell Type: Mouse prostate cells, Assay Type: Cell transformation, Assay Code: CTM+, Evaluation Type: Evaluation A (Pre-1980)
  mutagenic call: active; positive

## O=c1ccc(=O)[nH][nH]1
[1]
  mutagenic call: active; positive
[5]
  mutagenic call: inactive; negative
[6]
  mutagenic call: active; positive
[2]
  mutagenic call: active; positive
[7]
  mutagenic call: active; positive
[8]
  mutagenic call: active; positive
[9]
  mutagenic call: no conclusion
[10]
  mutagenic call: inactive; negative
[11]
  call: inactive; negative
[12]
  mutagenic call: active; positive
[13]
  mutagenic call: inactive; negative
[14]
  mutagenic call: inactive; negative
Species/Cell Type: Vicia faba, Assay Type: Chromosome aberrations, Assay Code: VIC+D, Dose Response: With dose response, Evaluation Type: Evaluation A (Pre-1980)
  mutagenic call: active; positive

## CCOCC
[15]
  mutagenic call: inactive; negative
Species/Cell Type: Escherichia coli polA (W3119 vs P3478), Assay Type: Rec-assay, DNA effects (bacterial DNA repair), Assay Code: RE1+, Evaluation Type: Evaluation A (Pre-1980)
  mutagenic call: active; positive
[16]
  mutagenic call: inactive; negative
Species/Cell Type: Nonhuman, Assay Type: Sister-chromatid exchange (SCE) in vitro, Assay Code: SC2T, Evaluation Type: Evaluation B (Post-1980)
  mutagenic call: no conclusion
[17]
  mutagenic call: no conclusion

## Nc1ccc(N)cc1
[1]
  mutagenic call: active; positive
[6]
  mutagenic call: active; positive
Species/Cell Type: Fischer rat embryo (RLV/1706) cells, Assay Type: Cell transformation, viral enhanced, Assay Code: CTR+, Evaluation Type: Evaluation A (Pre-1980)
  mutagenic call: active; positive
[9]
  mutagenic call: no conclusion
[16]
  mutagenic call: inactive; negative
[10]
  mutagenic call: inactive; negative
Species/Cell Type: Nonhuman, Assay Code: CCG-, Evaluation Type: Evaluation A (Pre-1980)
  call: inactive; negative
Species/Cell Type: Rodents, Sex: Male, Assay Type: Dominant lethal test, Assay Code: DLT-, Evaluation Type: Evaluation A (Pre-1980)
  mutagenic call: inactive; negative
Species/Cell Type: Syrian hamster embryo (SA7/SHE) cells, Assay Type: Cell transformation, viral enhanced, Assay Code: CT7+, Evaluation Type: Evaluation A (Pre-1980)
  mutagenic call: active; positive

## CC(=O)ON(C(C)=O)c1ccc(/C=C/c2ccccc2)cc1
[18]
  mutagenic call: active; positive
Species/Cell Type: Saccharomyces cerevisiae, Assay Type: Mitotic recombination or gene conversion, Assay Code: YEH+, Evaluation Type: Evaluation A (Pre-1980)
  mutagenic call: active; positive
Species/Cell Type: Saccharomyces cerevisiae, Assay Type: Reverse gene mutation, Assay Code: YER+, Evaluation Type: Evaluation A (Pre-1980)
  mutagenic call: active; positive

## O[C@H]1c2ccc3cc4ccccc4cc3c2[C@@H]2OC2[C@@H]1O (stereo partly specified)
Species/Cell Type: Chinese hamster lung (V79) cells, Assay Type: Forward gene mutation at the HPRT or ouabain locus, Assay Code: V79+, Evaluation Type: Evaluation A (Pre-1980)
  mutagenic call: active; positive

## Cc1ccc2c(C)c3ccc4ccccc4c3nc2c1
[4]
  mutagenic call: active; positive

## [Cl-].[Cl-].[NH2-].[NH2-].[NH2-].[NH2-].[Pt+2]
Species/Cell Type: Chinese hamster ovary (CHO) cells, Assay Type: Forward gene mutation at the HPRT locus, Assay Code: CHOT, Evaluation Type: Evaluation B (Post-1980)
  mutagenic call: no conclusion

## O=CCC=O
[17]
  mutagenic call: no conclusion

## CCOC(=O)c1ccc(N=NN(C)C)cc1
[6]
  mutagenic call: active; positive
[18]
  mutagenic call: active; positive

## Oc1c(Cl)cc(Cl)c2cccnc12
[17]
  mutagenic call: no conclusion

## CCO
[5]
  mutagenic call: inactive; negative
[15]
  mutagenic call: inactive; negative
Species/Cell Type: Fischer rat embryo (RLV/1706) cells, Assay Type: Cell transformation, viral enhanced, Assay Code: CTR-, Evaluation Type: Evaluation A (Pre-1980)
  mutagenic call: inactive; negative
[7]
  mutagenic call: active; positive
Species/Cell Type: Human lymphocytes, Assay Type: Sister-chromatid exchange (SCE) in vitro, Assay Code: SCL-, Evaluation Type: Evaluation A (Pre-1980)
  mutagenic call: inactive; negative
[8]
  mutagenic call: active; positive
Species/Cell Type: Human, Assay Type: Sister-chromatid exchange (SCE) in vitro, Assay Code: SC1-, Evaluation Type: Evaluation A (Pre-1980)
  mutagenic call: inactive; negative
Species/Cell Type: Mammalian polychromatic erythrocytes, Assay Type: Micronucleus test, chromosome aberrations, Assay Code: MNT-, Evaluation Type: Evaluation A (Pre-1980)
  mutagenic call: inactive; negative
[16]
  mutagenic call: inactive; negative
[10]
  mutagenic call: inactive; negative
Species/Cell Type: Nonhuman, Assay Type: Chromosome aberrations in vitro, Assay Code: CY&-, Evaluation Type: Evaluation A (Pre-1980)
  mutagenic call: inactive; negative
[11]
  call: inactive; negative
[12]
  mutagenic call: active; positive
[13]
  mutagenic call: inactive; negative
Species/Cell Type: Nonhuman, Assay Type: Sister-chromatid exchange (SCE) in vivo, Assay Code: SC3+, Evaluation Type: Evaluation B (Post-1980)
  mutagenic call: active; positive
Species/Cell Type: Rodents, Sex: Male, Assay Type: Dominant lethal test, Assay Code: DLT+, Evaluation Type: Evaluation A (Pre-1980)
  mutagenic call: active; positive
[14]
  mutagenic call: inactive; negative
Species/Cell Type: Syrian hamster embryo (SHE) cells, Assay Type: Cell transformation, clonal assay, Assay Code: CTC-, Evaluation Type: Evaluation A (Pre-1980)
  mutagenic call: inactive; negative
Species/Cell Type: Tradescantia species, Assay Type: Gene mutation, Assay Code: TRM+D, Dose Response: With dose response, Evaluation Type: Evaluation A (Pre-1980)
  mutagenic call: active; positive
Species/Cell Type: Vicia faba, Assay Type: Chromosome aberrations, Assay Code: VIC+, Evaluation Type: Evaluation A (Pre-1980)
  mutagenic call: active; positive

## CCCN(CCC)C(=O)SCC
[10]
  mutagenic call: inactive; negative
Species/Cell Type: Zea mays (corn), Assay Type: Gene mutation, Assay Code: ZEM-, Evaluation Type: Evaluation A (Pre-1980)
  mutagenic call: inactive; negative

## CCOC(=O)N1CC1
Species/Cell Type: Schizosaccharomyces pombe, Assay Type: Reverse gene mutation, Assay Code: YEZ+, Evaluation Type: Evaluation A (Pre-1980)
  mutagenic call: active; positive
